# Data published in paper PMC2267855, “Site-directed mutagenesis of Arginine282 suggests how protons and peptides are co-transported by rabbit PepT1” (The International Journal of Biochemistry & Cell Biology, 2008).
# Substitutions are numbered along the chain they refer to.
# Tests used:
# wild-type rabbit PepT1 = molecular target: T1, wild-type rabbit PepT1 (Oryctolagus cuniculus, UniProt P36836); assay: Inhibition of [3H]-D-Phe-L-Gln uptake into Xenopus oocytes expressing wild-type PepT1 (competition, Ki); assay type: cell-based; conditions: PepT1, data not shown; read-out: Ki (PepT1 substrate)
# T1 construct: expressed in transfected cells; host or cells: Xenopus laevis oocytes injected with cRNA
# T1 sequence (P36836 1-707): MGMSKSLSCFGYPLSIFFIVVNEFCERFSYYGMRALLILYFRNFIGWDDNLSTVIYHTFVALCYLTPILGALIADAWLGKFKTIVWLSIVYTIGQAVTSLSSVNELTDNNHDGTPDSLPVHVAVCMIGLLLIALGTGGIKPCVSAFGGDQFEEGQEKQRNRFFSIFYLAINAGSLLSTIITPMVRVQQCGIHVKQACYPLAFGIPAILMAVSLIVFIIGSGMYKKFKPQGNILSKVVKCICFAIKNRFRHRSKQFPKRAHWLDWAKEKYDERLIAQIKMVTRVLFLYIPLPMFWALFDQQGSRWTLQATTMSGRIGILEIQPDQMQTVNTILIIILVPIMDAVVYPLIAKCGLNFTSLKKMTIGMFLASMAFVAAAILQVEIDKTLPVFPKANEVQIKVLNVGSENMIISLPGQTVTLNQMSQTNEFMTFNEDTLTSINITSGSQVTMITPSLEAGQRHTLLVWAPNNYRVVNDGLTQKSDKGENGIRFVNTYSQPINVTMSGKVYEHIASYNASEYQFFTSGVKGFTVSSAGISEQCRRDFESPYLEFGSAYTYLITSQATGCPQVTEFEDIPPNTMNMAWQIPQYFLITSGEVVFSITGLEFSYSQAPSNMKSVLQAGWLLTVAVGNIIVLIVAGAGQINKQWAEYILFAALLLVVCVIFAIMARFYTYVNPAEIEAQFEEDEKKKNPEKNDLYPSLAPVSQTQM
# Procedure: (§1) Zero-trans uptake of [^3H]-D-Phe-L-Gln (17.4 Ci/mmole, custom synthesised, Cambridge Research Biochemicals, Stockton-on-Tees, UK) was performed as previously described ([Meredith, 2004]). Briefly, 5 oocytes were incubated in 100 μl of uptake medium (95 mM NaCl, 2 mM KCl, 1 mM CaCl2, 0.42 mM MgCl2, 10 mM Tris/Hepes pH 7.4 or Tris/Mes pH 5.5) with tracer (0.4 μM) [^3H]-D-Phe-L-Gln. After incubation, the oocytes were washed sequentially five times in 1 ml of ice-cold 120 mM NaCl solution, lysed individually with 100 μl 2% (w/v) SDS and liquid scintillation counted. As a control non-injected oocytes were also incubated in uptake medium with [^3H]-D-Phe-L-Gln as above.
# The affinity of wild-type and mutant PepT1 were assessed by competition studies with 0.4 μM [^3H]-D-Phe-L-Gln and Gly-L-Gln present in the uptake medium in concentrations from 0 to 2 mM using the protocol above, and the Ki calculated using the method of [Deves and Boyd (1989)].
# wild-type PepT1 [1] = molecular target: T2, wild-type PepT1 (Oryctolagus cuniculus, UniProt P36836); assay: Diethylpyrocarbonate inhibition of PepT1-mediated dipeptide uptake and protection by substrates; assay type: cell-based, rabbit; conditions: for protection of PepT1 from DEPC inhibition: 5 mM present during 1 mM DEPC incubation (15 min), uptake measured over 1 h
# T2 construct: expressed in transfected cells; host or cells: Xenopus laevis oocytes injected with cRNA
# T2 sequence (P36836 1-707): T1 sequence (P36836 1-707)
# Procedure: as §1
# Diethylpyrocarbonate (DEPC) inhibition of PepT1 was performed using a similar protocol to that of [Terada, Saito, and Inui (1998)]. Briefly, PepT1 oocytes were preincubated with 1 mM DEPC for 15 min at pHout 5.5 in the absence or presence of the PepT1 substrates Gly-L-Gln, N-Acetyl-Phe ([Meredith et al., 2000]), and L-Ala-Tyramine (custom synthesised) and the non-substrate Tyr (all 5 mM). The oocytes were then washed in uptake medium before uptake assays were performed as detailed above.
# wild-type PepT1 [2] = molecular target: T2, wild-type PepT1; assay: Membrane potential of oocytes expressing wild-type PepT1 (single microelectrode); assay type: cell-based, rabbit; conditions: 10 mM, pHout 5.5, 1 min
# Procedure: (§2) Measurements of membrane potential were made by impaling oocytes with a single glass microelectrode (Intra 767 amplifier, WPI, Stevenage, Hertfordshire, UK) perfused in uptake medium (as above) with or without 0.4 μM D-Phe-L-Gln (synthesised in house), 0.6 mM Gly-L-Gln (Sigma, Poole, UK) or 10 mM 4-aminobenzoic acid (4-AMBA, Sigma). Two-electrode voltage clamp (TEVC) was performed by placing oocytes in a 0.1 ml recording chamber and perfusing with uptake solution (pH 5.5 or 7.4) at a rate of 15 ml/min. Oocytes were impaled by two agarose-cushioned microelectrodes filled with 3 M KCl (0.5–2.0 MΩ) and voltage-clamped at −60 mV using a Geneclamp 500B amplifier and PCLAMP 8.1 software (Axon Instruments, CA, USA). The holding potential was stepped from −60 mV over the range of −150 to +50 mV in 10 mV steps, each pulse lasting 100 ms, and returning to −60 mV in between test voltage pulses. Typically traces were filtered at 1 kHz during recording and digitized at 0.5–5 kHz using the DigiData 1200 interface (Axon Instruments, CA, USA). All experiments were carried out at room temperature.
# R282E-PepT1 = molecular target: T3, R282E-PepT1 (Oryctolagus cuniculus, UniProt P36836, R282E); assay: Membrane potential of oocytes expressing R282E-PepT1 (single microelectrode); assay type: cell-based, rabbit; conditions: 10 mM, pHout 5.5, 1 min
# T3 construct: expressed in transfected cells; host or cells: Xenopus laevis oocytes injected with cRNA
# T3 sequence (P36836 1-707 R282E): T1 sequence (P36836 1-707) with R282E
# Procedure: as §2
smiles,measurement,setting,value
C[C@H](N)C(=O)NCCc1ccc(O)cc1 [L-Ala-Tyramine],Ki,wild-type rabbit PepT1,~100 µM
same,protection of PepT1 from DEPC inhibition,wild-type PepT1 [1],only partially prevented
"CCOC(=O)OC(=O)OCC [DEPC, Diethylpyrocarbonate]",inhibition of PepT1 mediated dipeptide uptake,"wild-type PepT1 [1]; 1 mM, 15 min preincubation, pHout 5.5, uptake measured over 1 h",completely inhibited
"Nc1ccc(C(=O)O)cc1 [4-AMBA, 4-aminobenzoic acid]",membrane potential depolarisation,wild-type PepT1 [2],failed to induce a depolarisation
same,membrane potential depolarisation,R282E-PepT1,failed to induce a depolarisation
CC(=O)NC(Cc1ccccc1)C(=O)O (stereo not shown) [N-Acetyl-Phe],protection of PepT1 from DEPC inhibition,wild-type PepT1 [1],largely prevented
N[C@@H](Cc1ccc(O)cc1)C(=O)O [Tyr],protection of PepT1 from DEPC inhibition,wild-type PepT1 [1],not
